From EP1949908A1, “Combined use of derivatives of GLP-1 analogs and PPAR ligands” (NOVO NORDISK A/S, priority 2001, dated 2002)

System: male ZDF rat
Assay: Four weeks treatment of overtly diabetic male ZDF rats: HbA1c and 24-hour glucose profile
Assay type: in vivo
Settings: mean±SEM, n=10, propionic acid compound 1 mg/kg oral gavage once daily, GLP-1 derivative 50 µg/kg subcutaneously twice daily
Experimental: Ninety male ZDF rats aged 15-16 weeks were used in the study. Before treatment start, measurements of glucose and HbA1c were performed. All animals were overtly diabetic at the beginning of the study. Animals were allocated into the following 4 treatment groups:
(-)-2-Ethoxy-3-(4-(2-phenoxazin-10-yl-ethoxy)-phenyl)-propionic acid and Vehicle-1 were administered by oral gavage once daily at approx. 07:30. Arg^34, Lys^26(N^ε-(γ-Glu(N^α-hexadecanoyl)))-GLP-1 (7-37) and Vehicle-2 were administered subcutaneously twice daily at approx. 07:30 and 14:30.
After four weeks treatment, HbA1c was measured and 24-hour glucose profiles were assessed.
Delta HbA1c refers to the numerical difference between the measurement after treatment and the measurement before treatment. Glucose24hAUC refers to the total area under the glucose concentration curve during the 24-hour period. A two-way analysis of variance was performed for each parameter and the significance of the interaction term evaluated.

CCOC(Cc1ccc(OCCN2c3ccccc3Oc3ccccc32)cc1)C(=O)O (single isomer, unassigned; (-)) [(-)-2-ethoxy-3-(4-(2-phenoxazin-10-yl-ethoxy)-phenyl)-propionic acid]
Delta HbA1c (after four weeks treatment minus before treatment): -0.81±0.36 % points | Glucose24hAUC (total area under the glucose concentration curve during 24-hour period after four weeks treatment): 456 ± 38 mM·h
